# Measurements as given in US7138361B2, “Herbicidal heterocycles” (E. I. du Pont de Nemours and Company, priority 2000, dated 2006).
# Columns and labels:
# Assay type in all cases: in vivo
# [1] = system: barnyardgrass (Echinochloa crus-galli); experiment: Test C flooded paddy test
# Method in brief: (§1)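 Flooded paddy, 2-leaf stage at treatment. Readout: visual % control vs untreated, 0–100, at 12–14 d in greenhouse.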
# [2] = system: duck salad (Heteranthera limosa); experiment: Test C flooded paddy test
# Method in brief: as §1
# rice (Oryza saliva) [3] = experiment: Test C flooded paddy test
# Method in brief: as §1
# [4] = system: smallflower flatsedge (Cyperus difformis); experiment: Test C flooded paddy test; details: for Flatsedge plant response rating: Flooded Paddy, scale 0 to 100, 0 no effect, 100 complete control; for Plant response rating, Flatsedge: flooded paddy test, scale 0 to 100 (0 no effect, 100 complete control)
# Method in brief: as §1
# [5] = system: barnyardgrass (Echinochloa crus-galli); experiment: Test B flooded paddy test; details: Rate 1000 g/ha, scale of 0 to 100 where 0 is no effect and 100 is complete control, visually evaluated after 13 to 15 days
# Method in brief: (§2)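 Visual rating on a 0–100 scale, where 100 is complete control, made after 13 to 15 days in a greenhouse by comparison with untreated controls. Species treated in the flooded paddy were at the 2-leaf stage: barnyardgrass, duck salad, smallflower flatsedge and rice.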
# [6] = system: duck salad (Heteranthera limosa); experiment: Test B flooded paddy test; details: Rate 1000 g/ha, scale of 0 to 100 where 0 is no effect and 100 is complete control, visually evaluated after 13 to 15 days
# Method in brief: as §2
# rice (Oryza saliva) [7] = experiment: Test B flooded paddy test; details: Rate 1000 g/ha, scale of 0 to 100 where 0 is no effect and 100 is complete control, visually evaluated after 13 to 15 days
# Method in brief: as §2
# [8] = system: smallflower flatsedge (Cyperus difformis); experiment: Test B flooded paddy test; details: Rate 1000 g/ha, scale of 0 to 100 where 0 is no effect and 100 is complete control, visually evaluated after 13 to 15 days
# Method in brief: as §2
# [9] = system: barnyardgrass (Echinochloa crus-galli); experiment: Test B postemergence; details: 13 to 15 days
# Method in brief: (§3)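 Seeds were planted and sprayed preemergence with test chemical in a non-phytotoxic solvent mixture containing surfactant; postemergence plants (2 to 18 cm, 1- to 4-leaf stage) received the same formulation. Greenhouse hold 13 to 15 days, then visual rating versus untreated controls on a 0–100 scale (0 no effect, 100 complete control).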
# [10] = system: morning glory (Ipomoea hederacea); experiment: Test B postemergence; details: 13 to 15 days
# Method in brief: as §3
# [11] = system: crabgrass (Digitaria sanguinalis); experiment: Test B postemergence; details: 13 to 15 days
# Method in brief: as §3
# [12] = system: wheat (Triticum aestivum); experiment: Test B postemergence; details: 13 to 15 days
# Method in brief: as §3
# [13] = system: velvetleaf (Abutilon theophrasti); experiment: Test B postemergence; details: 13 to 15 days
# Method in brief: as §3
# [14] = system: lambsquarters (Chenopodium album); experiment: Test B postemergence; details: 13 to 15 days
# Method in brief: as §3
# [15] = system: Surinam grass (Brachiaria decumbens); experiment: Test B postemergence; details: 13 to 15 days
# Method in brief: as §3
# wild oat (Avena fatua) = experiment: Test B postemergence; details: 13 to 15 days
# Method in brief: as §3
# [16] = system: blackgrass (Alopecurus myosuroides); experiment: Test B postemergence; details: 13 to 15 days
# Method in brief: as §3
# [17] = system: giant foxtail (Setaria faberii); experiment: Test B postemergence; details: 13 to 15 days
# Method in brief: as §3
# [18] = system: cocklebur (Xanthium strumarium); experiment: Test B postemergence; details: 13 to 15 days
# Method in brief: as §3
# [19] = system: pigweed (Amaranthus retroflexus); experiment: Test B postemergence; details: 13 to 15 days
# Method in brief: as §3
# corn (Zea mays) [20] = experiment: Test B postemergence; details: 13 to 15 days
# Method in brief: as §3
# [21] = system: barnyardgrass (Echinochloa crus-galli); experiment: Test B preemergence; details: scale 0 to 100, 0 no effect, 100 complete control
# Method in brief: as §3
# [22] = system: morning glory (Ipomoea hederacea); experiment: Test B preemergence; details: scale 0 to 100, 0 no effect, 100 complete control
# Method in brief: as §3
# [23] = system: crabgrass (Digitaria sanguinalis); experiment: Test B preemergence; details: scale 0 to 100, 0 no effect, 100 complete control
# Method in brief: as §3
# [24] = system: velvetleaf (Abutilon theophrasti); experiment: Test B preemergence; details: scale 0 to 100, 0 no effect, 100 complete control
# Method in brief: as §3
# [25] = system: lambsquarters (Chenopodium album); experiment: Test B preemergence; details: scale 0 to 100, 0 no effect, 100 complete control
# Method in brief: as §3
# rice (Oryza saliva) [26] = experiment: Test B preemergence; details: scale 0 to 100, 0 no effect, 100 complete control
# Method in brief: as §3
# [27] = system: Surinam grass (Brachiaria decumbens); experiment: Test B preemergence; details: scale 0 to 100, 0 no effect, 100 complete control
# Method in brief: as §3
# [28] = system: giant foxtail (Setaria faberii); experiment: Test B preemergence; details: scale 0 to 100, 0 no effect, 100 complete control
# Method in brief: as §3
# [29] = system: cocklebur (Xanthium strumarium); experiment: Test B preemergence; details: scale 0 to 100, 0 no effect, 100 complete control
# Method in brief: as §3
# [30] = system: pigweed (Amaranthus retroflexus); experiment: Test B preemergence; details: scale 0 to 100, 0 no effect, 100 complete control
# Method in brief: as §3
# corn (Zea mays) [31] = experiment: Test B preemergence; details: scale 0 to 100, 0 no effect, 100 complete control
# Method in brief: as §3
# [32] = Flooded Paddy, Rate 500 g/ha, scale 0 to 100
# [33] = Flooded Paddy, Rate 250 g/ha, scale 0 to 100, 0 no effect, 100 complete control
# [34] = flooded paddy test, Rate 62 g/ha, scale 0 to 100 (0 no effect, 100 complete control)
# [35] = flooded paddy test, Rate 125 g/ha, scale 0 to 100 (0 no effect, 100 complete control)
# [36] = Rate 125 g/ha, scale 0 (no effect) to 100 (complete control)
# [37] = Rate 500 g/ha, scale 0 to 100, 0 is no effect, 100 is complete control
structure (smiles),measurement,setting,value
Cc1ccn(C2SCN(c3cccc(C(F)(F)F)c3)C2=O)n1 (centres unmarked) [Compound 19],"Plant response rating, Barnyardgrass",[1]; [32],0
same,Barnyardgrass plant response rating,[1]; [33],0
same,"Plant response rating, Barnyardgrass",[1]; [34],0
same,"Plant response rating, Barnyardgrass",[1]; [35],0
same,"Plant response rating, Ducksalad",[2]; [32],0
same,Ducksalad plant response rating,[2]; [33],0
same,"Plant response rating, Ducksalad",[2]; [34],0
same,"Plant response rating, Ducksalad",[2]; [35],0
same,"Plant response rating, Rice",rice (Oryza saliva) [3]; [32],0
same,Rice plant response rating,rice (Oryza saliva) [3]; [33],0
same,"Plant response rating, Rice",rice (Oryza saliva) [3]; [34],0
same,"Plant response rating, Rice",rice (Oryza saliva) [3]; [35],0
same,Flatsedge plant response rating,[4]; Rate 250 g/ha,0
same,Flatsedge plant response rating,[4]; Rate 500 g/ha,30
same,"Plant response rating, Flatsedge",[4]; Rate 62 g/ha,0
same,"Plant response rating, Flatsedge",[4]; Rate 125 g/ha,0
same,"Plant response rating, Barnyardgrass",[5],60
same,"Plant response rating, Ducksalad",[6],80
same,"Plant response rating, Rice",rice (Oryza saliva) [7],0
same,"Plant response rating, Flatsedge",[8],90
same,"Plant response rating, Barnyardgrass",[9]; [36],0
same,"Plant response rating, Barnyardgrass",[9]; [37],0
same,"Plant response rating, Morningglory",[10]; [36],20
same,"Plant response rating, Morningglory",[10]; [37],30
same,"Plant response rating, Crabgrass",[11]; [36],0
same,"Plant response rating, Crabgrass",[11]; [37],20
same,"Plant response rating, Wheat",[12]; [36],0
same,"Plant response rating, Wheat",[12]; [37],0
same,"Plant response rating, Velvetleaf",[13]; [36],10
same,"Plant response rating, Velvetleaf",[13]; [37],20
same,"Plant response rating, Lambsquarters",[14]; [36],10
same,"Plant response rating, Lambsquarters",[14]; [37],70
same,"Plant response rating, Surinam grass",[15]; [36],0
same,"Plant response rating, Surinam grass",[15]; [37],10
same,"Plant response rating, Wild Oat",wild oat (Avena fatua); [36],0
same,"Plant response rating, Wild Oat",wild oat (Avena fatua); [37],0
same,"Plant response rating, Blackgrass",[16]; [36],0
same,"Plant response rating, Blackgrass",[16]; [37],0
same,"Plant response rating, Foxtail, Giant",[17]; [36],0
same,"Plant response rating, Foxtail, Giant",[17]; [37],0
same,"Plant response rating, Cocklebur",[18]; [36],20
same,"Plant response rating, Cocklebur",[18]; [37],20
same,"Plant response rating, Pigweed",[19]; [36],0
same,"Plant response rating, Pigweed",[19]; [37],0
same,"Plant response rating, Corn",corn (Zea mays) [20]; [36],0
same,"Plant response rating, Corn",corn (Zea mays) [20]; [37],0
same,"Plant response rating, Barnyardgrass","[21]; Preemergence, Rate 500 g/ha",0
same,"Plant response rating, Barnyardgrass","[21]; preemergence, Rate 125 g/ha",0
same,"Plant response rating, Morningglory","[22]; Preemergence, Rate 500 g/ha",0
same,"Plant response rating, Morningglory","[22]; preemergence, Rate 125 g/ha",0
same,"Plant response rating, Crabgrass","[23]; Preemergence, Rate 500 g/ha",0
same,"Plant response rating, Crabgrass","[23]; preemergence, Rate 125 g/ha",0
same,"Plant response rating, Velvetleaf","[24]; Preemergence, Rate 500 g/ha",0
same,"Plant response rating, Velvetleaf","[24]; preemergence, Rate 125 g/ha",0
same,"Plant response rating, Lambsquarters","[25]; Preemergence, Rate 500 g/ha",60
same,"Plant response rating, Lambsquarters","[25]; preemergence, Rate 125 g/ha",0
same,"Plant response rating, Rice","rice (Oryza saliva) [26]; Preemergence, Rate 500 g/ha",0
same,"Plant response rating, Rice","rice (Oryza saliva) [26]; preemergence, Rate 125 g/ha",0
same,"Plant response rating, Surinam grass","[27]; Preemergence, Rate 500 g/ha",20
same,"Plant response rating, Surinam grass","[27]; preemergence, Rate 125 g/ha",0
same,"Plant response rating, Foxtail, Giant","[28]; Preemergence, Rate 500 g/ha",0
same,"Plant response rating, Foxtail, Giant","[28]; preemergence, Rate 125 g/ha",0
same,"Plant response rating, Cocklebur","[29]; Preemergence, Rate 500 g/ha",0
same,"Plant response rating, Cocklebur","[29]; preemergence, Rate 125 g/ha",0
same,"Plant response rating, Pigweed","[30]; Preemergence, Rate 500 g/ha",0
same,"Plant response rating, Pigweed","[30]; preemergence, Rate 125 g/ha",0
same,"Plant response rating, Corn","corn (Zea mays) [31]; Preemergence, Rate 500 g/ha",0
same,"Plant response rating, Corn","corn (Zea mays) [31]; preemergence, Rate 125 g/ha",0
